Read-outs that look alike come from different tables or passages of the source.

The test system of data set [1] is Trichoderma reesei cellulase composition. The data set is described as follows: Hydrolysis of AVICEL® (microcrystalline cellulose) by the T. reesei cellulase composition. The note with it: for quinone compound effect(no GH61) (ratio, Equation 2): AVICEL®; for Percent conversion of AVICEL®: no quinone compound, cellulase 4 mg protein/g cellulose, GH61 polypeptide where present 0.4 mg/g cellulose (10% w/w of cellulase).

Data set [2] has the same test system. The conditions noted are these: milled washed PCS; 5 mM quinone; 1, 3, and 7 days (white bars).
In data set [3] the target is A. oryzae CEL3A beta-glucosidase (Aspergillus oryzae, UniProt Q2UUD6). The class given is biochemical. The conditions noted are these: 96 hours at 50° C.
For data set [4], the system named is A. oryzae CEL3A beta-glucosidase. The class given is biochemical. The note with it: 96 hours at 50° C.
The mark [5] stands for this setting: 5 mM quinone, 1, 3, and 7 days (white bars).
Setting [6] is: quinone added to A. oryzae CEL3A beta-glucosidase (10 mg/g cellulose), no GH61A.
Where [7] appears, read: quinone with T. aurantiacus GH61A polypeptide (10 mg/g cellulose) and A. oryzae CEL3A beta-glucosidase (10 mg/g cellulose).
[8] abbreviates: component added alone, beta-glucosidase or GH61A 10 mg protein per g cellulose, adrenochrome […] w/w, 4-tert-butyl-5-methoxy-1,2-benzoquinone 0.15% w/w.
Where [9] appears, read: quinone with T. aurantiacus GH61A polypeptide (10 mg/g cellulose), no beta-glucosidase.

On to `O=C1c2ccccc2C(=O)c2c(O)ccc(O)c21`, for which the “quinone compound effect(no GH61) (ratio, Equation 2)” value is listed as 0.932±0.0123 in data set [1] (1 mM quinone, 3 days of hydrolysis) and 1.01±0.0120 in data set [1] (1 mM quinone, 7 days of hydrolysis).
`O=C1C=C(O)C(=O)c2ccccc21`: the “quinone compound effect(no GH61) (ratio, Equation 2)” value in data set [1] (1 mM quinone, FIG. 1E white bars) was “less than 1”.
Consider `O=C1C=CC(=O)C=C1` [1,4-benzoquinone], for which, in data set [1] (setting [5]), the “quinone compound effect(no GH61) (ratio, Equation 2)” value is on record as “less than 1”.
For the molecule `O=C1C=CC(=O)c2ccccc21` [1,4-naphthoquinone], the “quinone compound effect(no GH61) (ratio, Equation 2)” value in data set [2] and in data set [1] (setting [5]) was “less than 1” each time.
As for `COC1=CC(=O)C(=O)C=C1C(C)(C)C` [4-tert-butyl-5-methoxy-1,2-benzoquinone], the “conversion of PASC” value is reported as 1.6±0.1% in data set [3] (setting [6]), 29.9±3.2% in data set [3] (setting [7]), “no significant conversion” in data set [4] (setting [8]) and 0.8±0.6% in data set [4] (setting [9]).
For `CN1CC(O)C2=CC(=O)C(=O)C=C21` (stereo not drawn) [adrenochrome, 3-hydroxy-1-methyl-5,6-indolinedione] the same measures were 0.3±0.3%, 8.5±2.0%, “no significant conversion” and 0.1±0.1%.

B1: T. reesei GH61B polypeptide: GH61B polypeptide having cellulolytic enhancing activity (SEQ ID NO: 16), recombinantly prepared according to WO 2007/089290 A2 (protein, listed as Trichoderma reesei)
chain: MKSCAILAALGCLAGSVLGHGQVQNFTINGQYNQGFILDYYYQKQNTGHFPNVAGWYAEDLDLGFISPDQYTTPDIVCHKNAAPGAISATAAAGSNIVFQWGPGVWPHPYGPIVTYVVECSGSCTTVNKNNLRWVKIQEAGINYNTQVWAQQDLINQGNKWTVKIPSSLRPGNYVFRHELLAAHGASSANGMQNYPQCVNIAVTGSGTKALPAGTPATQLYKPTDPGILFNPYTTITSYTIPGPALWQG
For B1, the figures for the “Percent conversion of AVICEL®” value in data set [1] (1 day), in data set [1] (3 days) and in data set [1] (7 days) were 13.6±0.4%, 29±2% and 44±2%, respectively.

B2: T. terrestris GH61E polypeptide: GH61E polypeptide having cellulolytic enhancing activity (SEQ ID NO: 8), recombinantly prepared according to WO 2005/074647 A2 (protein, listed as Thielavia terrestris)
chain: MLANGAIVFLAAALGVSGHYTWPRVNDGADWQQVRKADNWQDNGYVGDVTSPQIRCFQATPSPAPSVLNTTAGSTVTYWANPDVYHPGPVQFYMARVPDGEDINSWNGDGAVWFKVYEDHPTFGAQLTWPSTGKSSFAVPIPPCIKSGYYLLRAEQIGLHVAQSVGGAQFYISCAQLSVTGGGSTEPPNKVAFPGAYSATDPGILINIYYPVPTSYQNPGPAVFSC
Consider B2, for which the “Percent conversion of AVICEL®” value in data set [1] (1 day) was 14.7±0.3%; in data set [1] (3 days), 29.2±0.4%; in data set [1] (7 days), 49.3±0.5%.

B3: T. stipitatus GH61 polypeptide: GH61 polypeptide having cellulolytic enhancing activity (SEQ ID NO: 164), recombinantly prepared as described in Example 3 (protein, listed as Talaromyces stipitatus)
chain: MPSTKVAALSAVLALASTVAGHGFVQNIVIDGKSYTGYLVNQYPYQSNPPAVIGWSTTATDLGFVDGSGYTNPDIICHKNAKPGQLSAPVAAGGKVELEWTTWPESHHGPVISYLANCNGDCTTVDKTKLEFVKIDQRGLIDDSNPPGTWAADQLIAANNSWTVTIPESIAPGNYVLRHEIIALHSANNATGAQNYPQCINLQITGSGTANPSGTPGEKLYTPTDPGILVNIYQSLSSYVIPGPTLWSGAAAHVVATAAGSATGVASATATPTTLVTAVSSPTGAPSVVTPEAPSVTSFAPVVTVTDVVTVTTVITTTIS
With B3, the “Percent conversion of AVICEL®” value in data set [1] (1 day) is given as 13.6±0.4%; in data set [1] (3 days) it was 27.9±0.2%; in data set [1] (7 days) it was 44.7±0.5%.

B4: A. oryzae CEL3A beta-glucosidase: beta-glucosidase (SEQ ID NO: 112) recombinantly prepared as described in WO 2004/099228 (protein, listed as Aspergillus oryzae)
chain: MKLGWIEVAALAAASVVSAKDDLAYSPPFYPSPWADGQGEWAEVYKRAVDIVSQMTLTEKVNLTTGTGWQLERCVGQTGSVPRLNIPSLCLQDSPLGIRFSDYNSAFPAGVNVAATWDKTLAYLRGQAMGEEFSDKGIDVQLGPAAGPLGAHPDGGRNWEGFSPDPALTGVLFAETIKGIQDAGVIATAKHYIMNEQEHFRQQPEAAGYGFNVSDSLSSNVDDKTMHELYLWPFADAVRAGVGAVMCSYNQINNSYGCENSETLNKLLKAELGFQGFVMSDWTAHHSGVGAALAGLDMSMPGDVTFDSGTSFWGANLTVGVLNGTIPQWRVDDMAVRIMAAYYKVGRDTKYTPPNFSSWTRDEYGFAHNHVSEGAYERVNEFVDVQRDHADLIRRIGAQSTVLLKNKGALPLSRKEKLVALLGEDAGSNSWGANGCDDRGCDNGTLAMAWGSGTANFPYLVTPEQAIQNEVLQGRGNVFAVTDSWALDKIAAAARQASVSLVFVNSDSGEGYLSVDGNEGDRNNITLWKNGDNVVKTAANNCNNTVVIIHSVGPVLIDEWYDHPNVTGILWAGLPGQESGNSIADVLYGRVNPGAKSPFTWGKTRESYGSPLVKDANNGNGAPQSDFTQGVFIDYRHFDKFNETPIYEFGYGLSYTTFELSDLHVQPLNASRYTPTSGMTEAAKNFGEIGDASEYVYPEGLERIHEFIYPWINSTDLKASSDDSNYGWEDSKYIPEGATDGSAQPRLPASGGAGGNPGLYEDLFRVSVKVKNTGNVAGDEVPQLYVSLGGPNEPKVVLRKFERIHLAPSQEAVWTTTLTRRDLANWDVSAQDWTVTPYPKTIYVGNSSRKLPLQASLPKAQ
Turning to B4, the “conversion of PASC” value in data set [4] (setting [8]) is given as 1.5±0.3%.

B5: P. pinophilum GH61A polypeptide: GH61A polypeptide having cellulolytic enhancing activity (SEQ ID NO: 32), recombinantly prepared according to WO 2011/005867 (protein, listed as Penicillium pinophilum)
chain: MPSTKVAALSAVLALASTVAGHGFVQNIVIDGKSYSGYLVNQFPYESNPPAVIGWATTATDLGFVAPSEYTNADIICHKNATPGALSAPVAAGGTVELQWTTWPDSHHGPVISYLANCNGNCSTVDKTKLDFVKIDQGGLIDDTTPPGTWASDKLIAANNSWTVTIPSTIAPGNYVLRHEIIALHSAGNADGAQNYPQCINLEITGSGTAAPSGTAGEKLYTSTDPGILVNIYQSLSTYVIPGPTLWSGAANGAVATGSATAVATTATASATATPTTLVTSVAPASSTFATAVVTTVAPAVTDVVTVTDVVTVTTVITTTVL
B5: the “Percent conversion of AVICEL®” value is on record as 14.1±0.4% in data set [1] (1 day), 28.5±0.5% in data set [1] (3 days) and 46±2% in data set [1] (7 days).

The values above are taken from patent US9752168B2, “Compositions comprising a polypeptide having cellulolytic enhancing activity and a quinone compound and uses thereof” (priority 2010, dated 2017).
